Data: patent US10150737B2, “Compounds for controlling arthropods” (priority 2013, dated 2018)

How the values were obtained:
[1] = system: Ctenocephalides felis; assay: Ctenocephalides felis - oral test; format: in vivo; conditions: application rate 100 ppm in citrated cattle blood; after 2 days
How it was run: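 Roughly 20 unfed adult C. felis imbibe compound-dosed citrated cattle blood (DMSO formulation) across parafilm from a cylinder above their gauze chamber; percentage mortality recorded at day 2.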

[2] = system: Spodoptera frugiperda; assay: Spodoptera frugiperda - spray test; format: in vivo; conditions: caterpillars on maize leaf discs, after 7 days
How it was run: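 Percent mortality of Spodoptera frugiperda caterpillars scored 7 days after placing them on dried maize leaf discs sprayed at the desired concentration. Spray formulation: compound dissolved in acetone/dimethylformamide, made up with water containing 1000 ppm emulsifier.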

[3] = system: Boophilus microplus; assay: Boophilus microplus - injection test; format: in vivo; conditions: application rate 20 μg/animal, injection into engorged adult female ticks, after 7 days
How it was run: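 Five engorged adult female cattle ticks each received a 1 μl abdominal injection of compound solution in dimethyl sulphoxide. Fertile egg laying was assessed at 7 days, with doubtful eggs incubated about 42 days until hatch. 0% efficacy means all eggs fertile.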

[4] = system: Ctenocephalides felis; assay: Ctenocephalides felis - in vitro contact tests with adult cat fleas; format: in vivo; conditions: application rate 5 μg/cm2 (=500 g/ha); after 48 h; fleas dead or moribund
How it was run: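 Efficacy, as percentage of fleas dead or moribund, was scored at 48 h by knocking fleas to the tube base. Exposure was by contact with a dried acetone film of compound at 5 μg/cm^2 area dose; 5–10 adults per tube, room temperature, ambient humidity.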

[5] = system: Tetranychus urticae; assay: Tetranychus urticae - spray test, OP-resistant; format: in vivo; conditions: bean leaf discs, after 6 days
How it was run: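 Mortality (%) read on day 6 after spraying Phaseolus vulgaris leaf discs carrying all mite stages with formulations at the desired concentration. Formulation: active ingredient in acetone plus dimethylformamide, made up with emulsifier-containing water (1000 ppm alkylaryl polyglycol ether).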

[6] = system: Boophilus microplus Parkhurst strain, SP-resistant; assay: Boophilus microplus - dip test; format: in vivo; conditions: application rate 100 ppm; dip of engorged adult female ticks; after 7 days
How it was run: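 Compound dissolved in DMSO, diluted with water, and used to fully wet groups of 8-10 engorged female cattle ticks (SP-resistant Parkhurst strain). Fertile egg laying assessed at 7 days, doubtful eggs held ~42 days until hatch; 0% means all eggs fertile.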

[7] = system: Amblyomma hebraeum; assay: Amblyomma hebaraeum test (tick nymphs, immersion); format: in vivo; conditions: application rate 100 ppm; tick nymphs immersed one minute; after 42 days
Method: Solvent: dimethyl sulphoxide
To produce an appropriate active ingredient formulation, 10 mg of active ingredient are mixed with 0.5 ml of dimethyl sulphoxide, and the concentrate is diluted with water to the desired concentration.
Tick nymphs (Amblyomma hebraeum) are placed into perforated plastic beakers and immersed in the desired concentration for one minute. The ticks are transferred on filter paper into a Petri dish and stored in a climate-controlled cabinet.
After 42 days, the kill in % is determined. 100% means that all of the ticks have been killed; 0% means that none of the ticks have been killed.

[8] = system: Rhipicephalus sanguineus; assay: Rhipicephalus sanguineus - in vitro contact tests with adult brown dog ticks; format: in vivo; conditions: after 48 h, ticks dead or moribund
How it was run: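 Efficacy, scored after 48 h, is the % of adult ticks dead or moribund, i.e. unable to climb away on a 45-50° C hotplate within 5 min. Tubes held 5-10 ticks in the dark at room temperature, on an acetone-applied coating of 5 μg/cm^2 (900 ppm solution).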

[9] = system: Lucilia cuprina; assay: Lucilia cuprina test; format: in vivo; conditions: application rate 100 ppm; L1 larvae; after 2 days
How it was run: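 Mortality (%) of first-instar blowfly larvae, about 20 per vessel, recorded 2 days after exposure to compound-treated minced horsemeat. Compound dissolved in dimethyl sulphoxide, then water-diluted to the desired concentration.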

[10] = system: Musca domestica; assay: Musca domestica test; format: in vivo; conditions: application rate 100 ppm; adult houseflies; after 2 days
How it was run: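 First, 10 mg compound was taken up in 0.5 ml DMSO and then brought with water to the required concentration. This was applied with sugar solution to a sponge in vessels holding 10 adult flies; kill was assessed after 2 days.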

[11] = logP determination by HPLC on a reversed-phase column (C18); format: physicochemical; conditions: for logP^a): HPLC-MS method a); for log P: HPLC-MS
[12] = system: Phaedon cochleariae; assay: Phaedon cochleariae - spray test; format: in vivo; conditions: larvae on Chinese cabbage leaf discs, after 7 days
How it was run: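 Mortality of mustard beetle larvae was scored as % at day 7 on Brassica pekinensis leaf discs. Discs had been treated by spraying at the desired concentration, using an acetone/dimethylformamide solution diluted in water with 1000 ppm alkylaryl polyglycol ether, and dried before larvae were added.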

[13] = system: Myzus persicae; assay: Myzus persicae - spray test; format: in vivo; conditions: Chinese cabbage leaf discs, after 6 days
How it was run: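 Mortality of the green peach aphid, as % killed, was read 6 days after spraying infested Brassica pekinensis leaf discs. Compound formulated in acetone/dimethylformamide and made up with emulsifier-containing (1000 ppm) water.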

[14] = reversed-phase column (C18), Table I-T3

| SMILES | efficacy (kill) [1] | efficacy ([2]; application rate 500 g/ha) | efficacy (laying of fertile eggs) [3] | efficacy [4] | efficacy ([5]; application rate 500 g/ha) | efficacy (laying of fertile eggs) [6] | efficacy (kill) [7] | efficacy ([8]; application rate 5 μg/cm2) | efficacy (kill) [9] | efficacy (kill) [10] | logP^a) [11] | logP^a) [11, 14] | efficacy ([12]; application rate 500 g/ha) | efficacy ([13]; application rate 500 g/ha) | efficacy ([2]; application rate 100 g/ha) | efficacy ([5]; application rate 100 g/ha) | efficacy ([12]; application rate 100 g/ha) | efficacy ([13]; application rate 100 g/ha) | also measured |
| --- | --- | --- | --- | --- | --- | --- | --- | --- | --- | --- | --- | --- | --- | --- | --- | --- | --- | --- | --- |
| O=C(NC1CC1)c1cc(-c2cnn(-c3c(Cl)cc(C(F)(C(F)(F)F)C(F)(F)F)cc3Cl)c2)cnc1Cl [I-T3-42] | 100% | 100% | 100% | 100% | 100% | 100% | 100% | 100% | 100% | 100% | 3.8 | 3.8 | 100% | 90% |  |  |  |  |  |
| Cc1cc(C(F)(C(F)(F)F)C(F)(F)F)cc(Cl)c1-n1cc(-c2ccc(Cl)c(C(=O)NC3(C#N)CC3)c2)cn1 [I-T3-64] | 100% |  | 100% | 100% |  | 100% | 100% |  | 100% | 100% | 4.2 | 4.2 |  |  | 100% | 100% | 100% | 90% | efficacy ([8]; application rate 0.2 μg/cm2): 80% |
| CCc1cc(C(F)(C(F)(F)F)C(F)(F)F)cc(C)c1-n1cc(-c2ccc(Cl)c(C(=O)NC3CC3)c2)cn1 [I-T3-44] | 100% | 100% | 100% | 100% | 100% | 100% | 100% | 100% | 100% |  | 4.7 | 4.7 | 100% | 100% |  |  |  |  |  |
| Cc1cc(C(F)(C(F)(F)F)C(F)(F)F)cc(C)c1-n1cc(-c2cnc(C)c(C(=O)NC3(C#N)CC3)c2)cn1 [I-T3-97] | 100% | 100% | 100% | 100% | 100% | 100% | 100% | 100% | 100% | 100% | 3.4 |  | 100% | 90% |  |  |  |  | log P [11, 14]: 3.4 |
| Cc1cc(C(F)(C(F)(F)F)C(F)(F)F)cc(C(F)(F)F)c1-n1cc(-c2cnc(C)c(C(=O)NC3CC3)c2)cn1 [I-T3-117] | 100% | 100% | 100% | 100% | 90% | 100% | 100% | 100% | 100% | 100% |  |  | 100% | 90% |  |  |  |  | logP^a) ([11]; reversed-phase column (C18)): 3.5; log P [11, 14]: 3.5 |
| Cc1cc(C(F)(C(F)(F)F)C(F)(F)F)cc(C)c1-n1cc(-c2cnc(Cl)c(C(=O)NC3(C#N)CC3)c2)cn1 [I-T3-21] | 100% | 100% | 100% | 100% | 100% | 100% | 100% | 100% | 100% | 100% | 3.7 | 3.7 | 100% | 90% |  |  |  |  |  |
| CCc1cc(C(F)(F)C(F)(F)F)cc(C)c1-n1cc(-c2ccc(Cl)c(C(=O)NC3CC3)c2)cn1 [I-T3-81] | 100% |  | 100% | 100% |  | 100% | 100% | 100% | 100% | 90% | 4.3 | 4.3 |  |  | 100% | 100% | 100% | 90% |  |
| N#CC1(NC(=O)c2cc(-c3cnn(-c4ccc(C(F)(C(F)(F)F)C(F)(F)F)cc4C(F)(F)F)c3)ccc2Cl)CC1 [I-T3-53] | 100% |  | 100% |  |  | 100% | 80% | 100% | 100% | 100% | 4.3 | 4.3 |  |  | 100% | 100% | 100% | 90% |  |
| Cc1cc(C(F)(C(F)(F)F)C(F)(F)F)cc(C)c1-c1cnn(-c2cnc(Cl)c(C(=O)NC3CC3)c2)c1 [I-T4-3, 2-chloro-N-cyclopropyl-5-[4-[2,6-dimethyl-4-[1,2,2,2-tetrafluoro-1-(trifluoromethyl)ethyl]phenyl]pyrazol-1-yl]pyridine-3-carboxamide] |  |  |  | 100% |  | 100% | 100% | 100% |  |  |  |  |  |  |  |  |  | 90% | pest or weed control at 0.02 mg ([3]; Rhipicephalus microplus, 168 h, read-out: efficacy (laying of fertile eggs)): 100%; logP ([11]; HPLC, C18 reversed phase, acetonitrile/water with formic acid, EEC Directive 79/831 Annex V.A8): 4.4 |
| CCc1cc(C(F)(C(F)(F)F)C(F)(F)F)cc(Cl)c1-n1cc(-c2ccc(Cl)c(C(=O)NC3(C#N)CC3)c2)cn1 [I-T3-71] | 100% |  | 100% | 100% |  | 100% | 100% | 100% | 100% | 100% | 4.5 | 4.5 |  |  | 100% | 90% | 100% |  |  |
| Cc1cc(C(F)(C(F)(F)F)C(F)(F)F)cc(C)c1-n1cc(-c2ccc(Cl)c(C(=O)NC3CC3)c2)cn1 [I-T3-1] | 100% |  | 100% | 100% |  | 100% | 100% | 100% | 100% | 100% | 4.4 | 4.4 |  |  | 100% | 100% | 100% |  |  |
| O=C(NC1CC1)c1cc(-c2cnn(-c3c(Br)cc(C(F)(C(F)(F)F)C(F)(F)F)cc3C(F)(F)F)c2)ccc1Cl [I-T3-148] | 100% |  | 100% | 100% |  | 100% | 100% | 100% | 100% | 100% |  |  |  |  | 100% | 90% | 100% |  | logP^a) ([11]; reversed-phase column (C18)): 4.5; log P [11, 14]: 4.5 |
